{"source": "paper PMC6268373", "about": "“Systematic Study of the Physicochemical Properties of a Homologous Series of Aminobisphosphonates” (Molecules, 2012)", "key": {"[1]": {"experiment": "Protonation constants by (traditional) potentiometric titration (TPT), SUPERQUAD", "details": "0.1 M NaNO3, 25 °C; for logβx ± 3σ, x = 1 (H3L−) / logβx ± 3σ, x = 2 (H4L) / logβx ± 3σ, x = 3 (H5L+) / logβx ± 3σ, x = −1 (HL3−) / logβx ± 3σ, x = −2 (L4−): overall protonation, zero level H2L2−; for pKa: aqueous 0.1 M NaNO3, log K, TPT", "excerpt": "Results were obtained from […] as overall stability constants (log β values); following the chosen zero level H2L^2−. This zero level H2L^2− was chosen in the calculations to avoid any accumulation of errors of protonation constants at different pH ranges. The log β results for reactions (4) and (5) obtained in the final refinements are listed in Table S3 (see Supporting Information) with error limits (±3σ), number of points/number of titrations and χ^2/Σ statistics.\nThe details of the experiments using (traditional) potentiometric titration are presented in the Supporting Information. The results of the determination by Sirius instrument are shown in the Supporting Information. Potentiometric titrations of the compounds were performed with the PCA200 apparatus (Sirius Analytical Instruments Ltd, Forest Row, East Sussex, UK).\nTable S2. The effect of pH on aqueous solubility (mg/L) of aminoalkylbis(phosphonates) […]\nSolubility (g/L) of Compound\nDetermination of the Protonation Constants Using (traditional) Potentiometric Titration. Reagents:\nAqueous 0.1 M NaOH was prepared from Titrisol ampoules (Merck) and 0.1 M HNO3 from Convol ampoules (BDH). The background solution was prepared by dissolving NaNO3 in deionised water.\nThe NaNO3 and NaCl used in reference electrode were p.a. grade (Merck). The water used in the dilutions and titration solutions was purified with Milli-RO and Milli-Q water purification systems […]\nPotentiometric measurements: The protonation equilibria was studied in aqueous 0.1 M NaNO3 at 25.0 ± 0.1 °C through a series of potentiometric EMF titrations carried out with a Schott-Geräte GmbH […]\nThe cell arrangement for the measurement of the hydrogen ion concentration [H+] was as follows:\n−RE […] equilibrium solution […] GE+ (1) where GE denotes a glass electrode (Schott N2680), and RE is Hg, Hg2Cl2 […] 0.01 M NaCl, 0.09 M NaNO3. Expression (2) is valid assuming that the activity coefficients are constant.\nThe cell parameter E0 and the liquid junction coefficient jH, valid in acidic solutions, were determined for each titration by adding a known amount of HNO3 to the background electrolyte. The value of the liquid junction coefficient jOH, valid in basic solutions, was determined periodically. Only stable EMF readings were used in the calculations.\nDuring the measurements of the protonation equilibria, aqueous 0.1 M NaOH or 0.1 M HNO3 was […]\nFour to eight independent titrations were carried out for each ligand. The number of data points used in […]\nData treatment: Protonation and deprotonation of the ligands were controlled by addition of HNO3 or NaOH. The curves of ZH versus pH were drawn to visualize the experimental data sets. ZH describes the average number of H+ ions added or liberated per mole of ligand and is given by the relationship […]\nwhere CH denotes the total concentration of protons calculated over the zero level H2L2−.\nIn the evaluation of the equilibrium constants, the following two-component equilibria were utilized:\nH2L2− ⇋ H2-xL(2+x)– + xH+ , x = 1–2; β–x (4) xH+ + H2L2− ⇋ Hx+2Lx–2, x = 1–3; βx (5)\nMathematical analysis of the systems involves a search for protonation models and equilibrium constants that best describe the experimental data. The calculations were carried out with the computer […]\n1200). The sample standard deviation Σ and the χ2 statistics used as criteria in the selection of the models were those provided by the program. As a means to improve the confidence level, the error limits for log β values determined in this study are reported as three times the standard deviation estimated by the program.\nFigure S2. ZH vs. pH for protonation of compounds (a) 1; (b) 2; (c) 3; (d) 4 and (e) 5."}, "[2]": {"experiment": "Thermal analysis (TG/DTA and TGA 7)", "format": "physicochemical", "details": "for Td / Td (decomposition onset): air; for Td: 5 °C/min; for Temp. range of 1st cleavage: lower limit taken at 0.5 wt-%; for Td (decomposition onset): average from both instruments, heating rate 5 °C/min", "protocol": "Thermal decomposition paths with evaluation of crystal water content were obtained parallel with two instruments; Perkin Elmer STA 6000 thermogravimetric TG/DTA and Perkin Elmer TGA 7 analyzers (Perkin Elmer, Massachusetts, USA). Measurements were carried out in an open platinum crucible (the higher 5 mm crucible was used in TG/DTA and a shallower 2 mm crucible in TGA 7) under air atmosphere (flow rate of 45 mL/min) with a heating rate of 5 °C/min over the temperature range of 25−700 °C. The temperature calibration of STA 6000 was made using melting points of indium (156.60 °C) and zinc (419.5 °C) standards. For TGA 7 magnetic Curie-point calibration technique (Alumel, Ni, Perkalloy, Fe) was used. The weight balance of both instruments was calibrated by measuring a standard weight of 50 mg at room temperature. The sample weights used in the measurements were about 4–8 mg, and for each bisphosphonate, it was attempted to keep the same on both instruments. The melting/dehydration/decomposition behavior of the compounds was also visually monitored using a Stuart Scientific SMP3 melting point apparatus."}, "[3]": {"experiment": "Aqueous solubility of saturated solution at 21 °C (phosphorus determination by molybdenum blue spectrophotometry)", "details": "21 °C; for pH of saturated solution: saturated aqueous solution, agitation time 30 min; for solubility at 30 min: Milli-Q water, unbuffered, water, thermodynamic from solid"}, "[4]": {"experiment": "pKa determination with Sirius instrument (PCA200)"}, "[5]": {"experiment": "Effect of temperature on aqueous solubility", "details": "Milli-Q water, unbuffered, thermodynamic from solid", "procedure": "A Jasco V-530 UV/Vis spectrophotometer was used for phosphorus determination at 880 nm wavelength. Filtered liquid samples were diluted to the appropriate volume with Milli-Q water and were digested with the persulphate oxidation technique in acidic medium at elevated temperature to convert aminobisphosponates to orthophosphate. In an acidic medium, ammonium molybdate and antimony potassium tartrate react with orthophosphate to form a phosphomolybdic acid that is reduced to intensively colored molybdenum blue by ascorbic acid [30].\nThe mixture containing an excess of the studied compound was first agitated for predetermined time with magnetic stirrer and before taking the sample mixture was allowed to stand for 24 h without stirring. The sample (about 5 mL) was taken from liquid above the solids, pH was measured and the sample was filtered through 0.2 µm membrane filter to remove any possible insoluble particles. The phosphorus concentration in the filtered sample solution was determined by using the spectrophotometric method described above."}, "[6]": {"details": "pKa1 (H4L + H+ ⇋ H5L+), approximate values"}}, "data": [{"smiles": "NCCCC(O)(P(=O)(O)O)P(=O)(O)O", "note": "[Compound 2, (4-amino-1-hydroxybutylidene)bisphosphonic acid, reference compound]", "values": [{"measurement": "logβx ± 3σ, x = 1 (H3L−)", "setting": "[1]", "result": "6.26 ± 0.01"}, {"measurement": "logβx ± 3σ, x = 2 (H4L)", "setting": "[1]", "result": "8.38 ± 0.02"}, {"measurement": "logβx ± 3σ, x = 3 (H5L+)", "setting": "[1]", "result": "8.98 ± 0.20"}, {"measurement": "logβx ± 3σ, x = −1 (HL3−)", "setting": "[1]", "result": "−10.69 ± 0.01"}, {"measurement": "logβx ± 3σ, x = −2 (L4−)", "setting": "[1]", "result": "−22.82 ± 0.02"}, {"measurement": "Onset of 1st cleavage (in parentheses)", "setting": "[2]; TG/DTA, higher crucible", "result": 222, "unit": "°C"}, {"measurement": "Td", "setting": "[2]; TG/DTA, higher crucible", "result": 222, "unit": "°C"}, {"measurement": "Temp. range of 1st cleavage", "setting": "[2]; TG/DTA, higher crucible", "result": "168–252 °C"}, {"measurement": "Onset of 1st cleavage (in parentheses)", "setting": "[2]; TGA 7, shallow crucible", "result": 225, "unit": "°C"}, {"measurement": "Td", "setting": "[2]; TGA 7, shallow crucible", "result": 225, "unit": "°C"}, {"measurement": "Temp. range of 1st cleavage", "setting": "[2]; TGA 7, shallow crucible", "result": "166–253 °C"}, {"measurement": "Td (decomposition onset)", "setting": "[2]", "result": 224, "unit": "°C"}, {"measurement": "pH of saturated solution", "setting": "[3]", "result": 1.94}]}, {"smiles": "NCCCCC(O)(P(=O)(O)O)P(=O)(O)O", "note": "[Compound 3, (5-Amino-1-hydroxypentylidene)bisphosphonic acid]", "values": [{"measurement": "pKa", "setting": "[1]; [6]", "result": 0.62}, {"measurement": "pKa", "setting": "[1]; pKa2 (H3L− + H+ ⇋ H4L)", "result": 2.3}, {"measurement": "pKa", "setting": "[1]; pKa3 (H2L2− + H+ ⇋ H3L−)", "result": 6.44}, {"measurement": "pKa", "setting": "[1]; pKa4 (HL3− + H+ ⇋ H2L2−)", "result": 10.8}, {"measurement": "pKa", "setting": "[1]; pKa5 (L4− + H+ ⇋ HL3−)", "result": 12.1}, {"measurement": "logβx ± 3σ, x = 1 (H3L−)", "setting": "[1]", "result": "6.44 ± 0.02"}, {"measurement": "logβx ± 3σ, x = 2 (H4L)", "setting": "[1]", "result": "8.74 ± 0.03"}, {"measurement": "logβx ± 3σ, x = 3 (H5L+)", "setting": "[1]", "result": "9.36 ± 0.51"}, {"measurement": "logβx ± 3σ, x = −1 (HL3−)", "setting": "[1]", "result": "−10.78 ± 0.02"}, {"measurement": "logβx ± 3σ, x = −2 (L4−)", "setting": "[1]", "result": "−22.83 ± 0.03"}, {"measurement": "Onset temperature of first cleavage", "setting": "[2]; TG/DTA, higher crucible", "result": 217, "unit": "°C"}, {"measurement": "Td", "setting": "[2]; TG/DTA, higher crucible", "result": 217, "unit": "°C"}, {"measurement": "Temp. range of 1st cleavage", "setting": "[2]; TG/DTA, higher crucible", "result": "198–252 °C"}, {"measurement": "Onset temperature of first cleavage", "setting": "[2]; TGA 7, shallow crucible", "result": 224, "unit": "°C"}, {"measurement": "Td", "setting": "[2]; TGA 7, shallow crucible", "result": 224, "unit": "°C"}, {"measurement": "Temp. range of 1st cleavage", "setting": "[2]; TGA 7, shallow crucible", "result": "195–265 °C"}, {"measurement": "Td (decomposition onset)", "setting": "[2]", "result": 220, "unit": "°C"}, {"measurement": "pKa 2 (Sirius)", "setting": "[4]", "result": 1.92}, {"measurement": "pKa 3 (Sirius)", "setting": "[4]", "result": 2.42}, {"measurement": "pKa 4 (Sirius)", "setting": "[4]", "result": 6.40}, {"measurement": "solubility at 30 min", "setting": "[3]", "result": 4010, "unit": "µg/mL"}, {"measurement": "pH of saturated solution", "setting": "[3]", "result": 2.22}]}, {"smiles": "NCCCCCCCC(O)(P(=O)(O)O)P(=O)(O)O", "note": "[Compound 5, (8-Amino-1-hydroxyoctylidene)bisphosphonic acid]", "values": [{"measurement": "pKa", "setting": "[1]; [6]", "result": 1.08}, {"measurement": "pKa", "setting": "[1]; pKa2 (H3L− + H+ ⇋ H4L)", "result": 2.52}, {"measurement": "pKa", "setting": "[1]; pKa3 (H2L2− + H+ ⇋ H3L−)", "result": 6.75}, {"measurement": "pKa", "setting": "[1]; pKa4 (HL3− + H+ ⇋ H2L2−)", "result": 10.7}, {"measurement": "pKa", "setting": "[1]; pKa5 (L4− + H+ ⇋ HL3−)", "result": 11.7}, {"measurement": "logβx ± 3σ, x = 1 (H3L−)", "setting": "[1]", "result": "6.75 ± 0.03"}, {"measurement": "logβx ± 3σ, x = 2 (H4L)", "setting": "[1]", "result": "9.27 ± 0.05"}, {"measurement": "logβx ± 3σ, x = 3 (H5L+)", "setting": "[1]", "result": "10.35 ± 0.24"}, {"measurement": "logβx ± 3σ, x = −1 (HL3−)", "setting": "[1]", "result": "−10.67 ± 0.03"}, {"measurement": "logβx ± 3σ, x = −2 (L4−)", "setting": "[1]", "result": "−22.32 ± 0.02"}, {"measurement": "Onset temperature of first cleavage", "setting": "[2]; TG/DTA, higher crucible", "result": 193, "unit": "°C"}, {"measurement": "Td", "setting": "[2]; TG/DTA, higher crucible", "result": 193, "unit": "°C"}, {"measurement": "Temp. range of 1st cleavage", "setting": "[2]; TG/DTA, higher crucible", "result": "182–212 °C"}, {"measurement": "Onset temperature of first cleavage", "setting": "[2]; TGA 7, shallow crucible", "result": 197, "unit": "°C"}, {"measurement": "Td", "setting": "[2]; TGA 7, shallow crucible", "result": 197, "unit": "°C"}, {"measurement": "Temp. range of 1st cleavage", "setting": "[2]; TGA 7, shallow crucible", "result": "175–222 °C"}, {"measurement": "Td (decomposition onset)", "setting": "[2]", "result": 195, "unit": "°C"}, {"measurement": "solubility at 24 h", "setting": "[5]; 4 °C", "result": 1850, "unit": "µg/mL"}, {"measurement": "solubility at 24 h", "setting": "[5]; 7.6 °C", "result": 1900, "unit": "µg/mL"}, {"measurement": "solubility at 24 h", "setting": "[5]; 21 °C", "result": 2100, "unit": "µg/mL"}, {"measurement": "solubility at 24 h", "setting": "[5]; 30 °C", "result": 2270, "unit": "µg/mL"}, {"measurement": "solubility at 24 h", "setting": "[5]; 40 °C", "result": 2400, "unit": "µg/mL"}, {"measurement": "solubility at 24 h", "setting": "[5]; 50 °C", "result": 3450, "unit": "µg/mL"}, {"measurement": "pKa 2 (Sirius)", "setting": "[4]", "result": 3.10}, {"measurement": "pKa 3 (Sirius)", "setting": "[4]", "result": 6.46}, {"measurement": "pKa 4 (Sirius)", "setting": "[4]", "result": 7.12}, {"measurement": "pKa 5 (Sirius)", "setting": "[4]", "result": 10.77}, {"measurement": "solubility at 30 min", "setting": "[3]", "result": 2100, "unit": "µg/mL"}, {"measurement": "pH of saturated solution", "setting": "[3]", "result": 2.61}]}]}
